According to patent EP3388430A1, “COMPOUND, COMPOUND FOR USE IN THE TREATMENT OF A PATHOLOGICAL CONDITION, A PHARMACEUTICAL COMPOSITION AND A METHOD FOR PREPARING SAID COMPOUND” (Technische Universität München, priority 2017, dated 2018):

Experiments:
EphA2 = target: T1, EphA2 (Homo sapiens, UniProt P29317); assay: Chemical proteomic affinity matrix competition binding in cell lysate (Kd app, CATDS); settings: CATDS (EphA2) at the concentration corresponding to the Kd app for EphA2; compared with dasatinib
T1 construct: enrichment of ATP-pocket containing proteins (mainly kinases) from complex native cell lysates; endogenous in cells; host or cells: native cell lysate
Source text: Several of the compounds according to the invention were further evaluated by a chemical proteomic approach facilitating the identification and quantification of drug-protein interactions. This technology utilizes an affinity matrix comprising five immobilized broad spectrum kinase inhibitors for enrichment of ATP-pocket containing proteins (mainly kinases) from complex native cell lysates as described in Bantscheff et al, Nat Biotechnol., 2007, 25(9):1035-44 and Médard et al, L Proteome Res., 2015, 14(3):1574-86. Coupled to quantitative mass spectrometry readout, this chemical proteomic approach allows for the simultaneous identification and quantification of about 300 native human protein kinases. […]
The compounds according to the invention were tested in nine different concentrations (including a DMSO control) ranging from 3 nM to 30 µM. […] Compound selectivity was determined by calculation of a selectivity score named CATDS (concentration and target dependent selectivity). […] It is calculated by dividing the target binding of the target protein (in this case EphA2) by the sum of all target bindings (including the target protein of interest, in this case EphA2) at a particular concentration (in this case the concentration corresponding to the Kd^app value of a compound for EphA2). […]

SF-268 cells = assay: SF-268 cell viability, resazurin-based assay; settings: Homo sapiens, SF-268, 72 h; three days of treatment; three biological and three technical replicates, Fig. 8; read-out: cellular potency (EC50), SF-268 cell viability
Experimental: The dependency of viability of SF-268 cells on EphA2 expression was validated by siRNA knockdown experiments. SF-268 cells were treated with four siRNAs targeting EphA2 expression independently and a mixture of the four siRNAs. Experiments were performed in three biological and three technical replicates. Cell death siRNA and scrambled siRNA were used as positive and negative controls. After six days of treatment, cellular viability was determined by a resazurin-based assay system measuring the reduction of resazurin as a function of metabolic activity.
Cellular potency was determined as EC50 value after three days of treatment using the above mentioned resazurin-based assay system in three biological and three technical replicates.

T1 sequence (P29317 24-976): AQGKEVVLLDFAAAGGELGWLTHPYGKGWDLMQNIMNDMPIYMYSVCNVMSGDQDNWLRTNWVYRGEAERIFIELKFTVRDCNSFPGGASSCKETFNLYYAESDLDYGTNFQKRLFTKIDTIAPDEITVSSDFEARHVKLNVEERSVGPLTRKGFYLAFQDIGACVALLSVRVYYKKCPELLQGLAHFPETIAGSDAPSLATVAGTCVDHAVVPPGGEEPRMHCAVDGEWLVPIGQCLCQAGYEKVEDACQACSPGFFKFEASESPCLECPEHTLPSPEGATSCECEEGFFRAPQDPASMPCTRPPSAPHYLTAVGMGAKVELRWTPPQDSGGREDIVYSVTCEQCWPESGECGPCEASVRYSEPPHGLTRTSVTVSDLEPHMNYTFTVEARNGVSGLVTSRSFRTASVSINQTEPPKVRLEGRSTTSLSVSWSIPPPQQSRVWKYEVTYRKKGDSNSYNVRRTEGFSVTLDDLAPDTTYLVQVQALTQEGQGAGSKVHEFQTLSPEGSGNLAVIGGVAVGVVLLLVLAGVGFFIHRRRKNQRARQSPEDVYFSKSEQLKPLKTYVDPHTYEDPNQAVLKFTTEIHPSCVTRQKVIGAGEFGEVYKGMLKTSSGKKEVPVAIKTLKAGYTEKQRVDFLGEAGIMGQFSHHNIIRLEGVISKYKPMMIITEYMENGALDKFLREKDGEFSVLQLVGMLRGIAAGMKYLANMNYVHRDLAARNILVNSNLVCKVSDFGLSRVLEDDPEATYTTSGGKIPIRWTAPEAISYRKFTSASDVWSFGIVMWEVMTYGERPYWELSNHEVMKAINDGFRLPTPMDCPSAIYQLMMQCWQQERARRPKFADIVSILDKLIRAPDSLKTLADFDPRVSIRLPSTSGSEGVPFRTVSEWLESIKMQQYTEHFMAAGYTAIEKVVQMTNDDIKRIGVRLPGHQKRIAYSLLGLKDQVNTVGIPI

SMILES | selectivity for EphA2 binding (CATDS) (EphA2) | EC50 (SF-268 cells)
Cc1cccc(Cl)c1NC(=O)c1cnc(Nc2cccc(C(=O)NC3CCNCC3(F)F)c2)s1 (stereo not shown) [Compound 28, N-(2-chloro-6-methylphenyl)-2-((3-((3,3-difluoropiperidin-4-yl)carbamoyl)phenyl)amino)thiazole-5-carboxamide] | improved selectivity | –
Cc1cccc(Cl)c1NC(=O)c1cnc(Nc2cc(N3CCOCC3)cc(N3CCOCC3)c2)s1 [Compound 40, N-(2-chloro-6-methylphenyl)-2-((3,5-dimorpholinophenyl)amino)thiazole-5-carboxamide] | improved selectivity | 94 nM
Cc1cccc(Cl)c1NC(=O)c1cnc(Nc2cc(N3CCOCC3)cc(S(C)(=O)=O)c2)s1 [Compound 41, N-(2-chloro-6-methylphenyl)-2-((3-(methylsulfonyl)-5-morpholinophenyl)amino)thiazole-5-carboxamide] | – | 504 nM
